In patent US20230276831A1, “Food/Beverage Article” (Kikkoman Corporation, priority 2020, published 2023):

Legend:
Assay type in all cases: cell-based
[1] = test system: Lactobacillus rennini (DSM 20253); experiment: Antimicrobial action of licoricidin in liquid dressing, lightly-pickled vegetables and cooking vinegar (Test Example 9); conditions: conclusion of Test Example 9
Source text: Specifically, Koikuchi soy sauce (produced by Kikkoman Corporation), table vinegar, mirin, granulated sugar, kelp stock, and water were blended in amounts shown in the following Table 24, and the resulting mixture was heated to produce liquid dressing. The salt concentration of the obtained liquid dressing was 2.6% (w/v), the alcohol concentration was 0.8% (v/v), the pH was 4.2.
Specifically, Usukuchi soy sauce (produced by Kikkoman Corporation), table vinegar, corn syrup, isomerized sugar, salt, granulated sugar, sodium glutamate (MSG), lemon fruit juice, kelp stock, and water were blended in amounts shown in the following Table 25, and the mixture was heated to produce seasoning liquid for lightly-pickled vegetables. Chinese cabbages were fully soaked therein to produce lightly-pickled vegetables. […]
Licoricidin (produced by ChemFaces) was added to each of the above-mentioned produced liquid dressing, lightly-pickled vegetables, and cooking vinegar to concentrations of 1 ppm, 5 ppm, 10 ppm, 25 ppm, and 50 ppm. […] After the culture, the number of lactic acid bacteria was measured using the GAM agar medium “Nissui”. The liquid dressing, the lightly-pickled vegetables, and the cooking vinegar to which licoricidin was not added were used as respective control groups, and the antimicrobial activity was evaluated in comparison with the number of lactic acid bacteria in the control group. […]

[2] = test system: Lactobacillus fructivores (NBRC 13954); experiment: Antimicrobial action of oxygen-containing heterocyclic compounds in soy sauce (Test Example 7); conditions: NBRC13954, 168 h, salt 4% (w/v), alcohol 5% (v/v)
Description: Commercially available whole soybean soy sauce (produced by Kikkoman Corporation) was electrodialyzed and then concentrated under reduced pressure to produce soy sauce at a salt concentration of 0% (w/v) and an alcohol concentration of 0% (v/v). Then, salt and/or alcohol was added to the above-mentioned obtained soy sauce, and the mixture was then heat-treated to produce soy sauce at a salt concentration of 4% (w/v) and an alcohol concentration of 5% (v/v).
The test substance described in Table 21 was added to the soy sauce produced in Test Example 6 to concentrations of 0.1 ppm, 0.5 ppm, 1 ppm, 5 ppm, 25 ppm, and 50 ppm. Lactic acid bacteria (Lactobacillus fructivores (NBRC 13954)) were then added to 10^4 to 10^5 cells/mL and cultured at 30° C. for 7 days. After the culture, the number of lactic acid bacteria was measured using Difco Lactobacilli MRS Agar. Soy sauce to which the test substance was not added was used as a control group, and the antimicrobial activity was evaluated in comparison with the number of lactic acid bacteria in the control group. The evaluation was performed using the following criterion.
• A: The bacterial count decreases to less than 10% of the bacterial count of a control group. • B: The bacterial count decreases to 10% or more and less than 50% of the bacterial count of the control group. • C: The bacterial count decreases to 50% or more and less than 100% of the bacterial count of the control group. • D: The bacterial count is the same as the bacterial count of the control group.

[3] = test system: Lactobacillus rennini DSM 20253; experiment: Antimicrobial action of licoricidin in liquid seasoning (1), lactic acid bacteria A; conditions: conclusion of Test Example 4; various salt concentration and various alcohol concentrations; lactic acid bacteria A to D
Description: Commercially available whole soybean soy sauce (produced by Kikkoman Corporation) was electrodialyzed and then concentrated under reduced pressure to obtain soy sauce at a salt concentration of 0% (w/v) and an alcohol concentration of 0% (v/v). Then, salt and/or alcohol was added to the above-mentioned obtained soy sauce, and the mixture was heat-treated to produce soy sauces at salt concentrations and alcohol concentrations shown in the following Table 5. The pHs of the soy sauces were 4.9 to 5.0. […]
Licoricidin (produced by ChemFaces) was added to each of the liquid seasonings produced in the above-mentioned (1) to concentrations of 1 ppm, 5 ppm, 10 ppm, 25 ppm, and 50 ppm. Lactic acid bacteria described in the following Table 9 were then added to 10^6 to 10^7 cells/mL and cultured at 30° C. for 7 days. After the culture, the number of lactic acid bacteria was measured using the GAM agar medium “Nissui”. Liquid seasoning to which licoricidin was not added was used as a control group, and the antimicrobial activity was evaluated in comparison with the number of lactic acid bacteria in the control group. The evaluation was performed using the criterion shown below. […]

COc1c(CC=C(C)C)c(O)cc2c1C[C@H](c1ccc(O)c(CC=C(C)C)c1O)CO2 [Licoricidin, 4-[(R)-7-hydroxy-5-methoxy-6-(3-methyl-2-butenyl)chroman-3-yl]-2-(3-methyl-2-butenyl)-1,3-benzenediol]
Antimicrobial activity to lactic acid bacteria in the various liquid seasonings and the food [1]: exhibited antimicrobial activity | activity at 0.1 ppm ([2]; test substance 0.1 ppm): 10 to 50% | activity at 0.5 ppm ([2]; test substance 0.5 ppm): 10 to 50% | activity at 1 ppm ([2]; test substance 1 ppm): 10 to 50% | activity at 5 ppm ([2]; test substance 5 ppm): 10 to 50% | activity at 25 ppm ([2]; test substance 25 ppm): < 10% | activity at 50 ppm ([2]; test substance 50 ppm): < 10% | Antimicrobial activity to various lactic acid bacteria [3]: exhibited antimicrobial activity
